# Literature values in patent publication US6331653A, “Process for producing 3,4-dihydroxy-3-cyclobutene-1,2-dione” (priority 1997, dated 2001).
# Details: in an aqueous solution at 25° C.; amine compound
row,pKa value,SMILES
1,10.1,CN1CCCCC1 [N-methylpiperidine]
2,10.5,CN1CCCC1 [N-methylpyrrolidine]
3,5.9,Cc1ccccn1 [α-picoline]

row,SMILES,pKa value
1,c1ccc2ncccc2c1 [Quinoline],4.8

# Same assay, conditions: water
row,SMILES,pKa value
1,"CCN(CC)c1ccccc1 [N,N-diethylaniline]",6.6
2,"CN(C)c1ccccc1 [N,N-dimethylaniline]",5.2
3,CCCCN(CCCC)CCCC [tributylamine],9.9
